# According to US4195171A, “Derivatives of an antibiotic XK-62-2 and process for the production thereof” (Abbott Laboratories, priority 1975, dated 1980):
# Legend:
# Experiment in all cases: Antibacterial spectrum, MIC by agar dilution method
# Type in all cases: cell-based
# [1] = test system: Pseudomonas aeruginosa KY Z-444; conditions: KYZ444, agar dilution, pH 7.2, strain produces 6N-acetyltransferase Type III, read-out: Minimum Inhibitory Concentration
# From the text: (§1) XK-62-2, 1-N-[L-(-)-α-hydroxy-γ-aminobutyryl] XK-62-2, Compounds (I-1), (I-2), (II-1) and (II-2) against various Gram-negative and Gram-positive bacteria determined by agar dilution method at pH 7.2.
# (§2) ^8 produces 6N-acetyltransferase Type III
# [2] = test system: Pseudomonas aeruginosa Z-445; conditions: Z445, pH 7.2, strain produces 6N-acetyltransferase Type III, read-out: Minimum Inhibitory Concentration
# From the text: as §1, §2
# [3] = test system: Pseudomonas aeruginosa KY 8519; conditions: KY8519, agar dilution, pH 7.2, strain produces neomycinkanamycin phosphotransferase Type I and Type II, read-out: Minimum Inhibitory Concentration
# From the text: as §1
# (§3) ^6 produces neomycinkanamycin phosphotransferase Type I and Type II
# [4] = test system: Pseudomonas aeruginosa KY 8512; conditions: KY8512, pH 7.2, strain produces neomycinkanamycin phosphotransferase Type I and Type II, read-out: Minimum Inhibitory Concentration
# From the text: as §1, §3
# [5] = test system: Serratia marcescens POE 1065; conditions: POE1065, pH 7.2, read-out: Minimum Inhibitory Concentration
# From the text: as §1
# (§4) ^1 produces kanamycin acetyltransferase
# [6] = test system: Pseudomonas aeruginosa KY 8510; conditions: KY8510, pH 7.2, read-out: Minimum Inhibitory Concentration
# From the text: as §1, §4
# [7] = test system: Escherichia coli KY Z-343; conditions: KYZ343, pH 7.2, strain produces kanamycin acetyltransferase, read-out: Minimum Inhibitory Concentration
# From the text: as §1, §4
# [8] = test system: Pseudomonas aeruginosa KY 8516; conditions: KY8516, pH 7.2, read-out: Minimum Inhibitory Concentration
# From the text: as §1, §4
# Escherichia coli KY 8321 = conditions: KY8321, pH 7.2, strain produces gentamicin adenyltransferase and neomycinkanamycin phosphotransferase Type II, read-out: Minimum Inhibitory Concentration
# From the text: as §1
# ^5 produces gentamicin adenyltransferase and neomycinkanamycin
# phosphotransferase Type II
# [9] = test system: Klebsiella pneumoniae No. 8045; conditions: pH 7.2, read-out: Minimum Inhibitory Concentration
# From the text: as §1
# Serratia sp T-55 = conditions: T55, agar dilution, pH 7.2, read-out: Minimum Inhibitory Concentration
# From the text: as §1
# Proteus morganii KY 4298 = conditions: Morganella morganii, KY4298; agar dilution, pH 7.2; read-out: Minimum Inhibitory Concentration
# From the text: as §1
# [10] = test system: bacillus subtilis ATCC 6633; conditions: ATCC6633, pH 7.2, read-out: Minimum Inhibitory Concentration
# From the text: as §1
# [11] = test system: Pseudomonas aeruginosa BMH 1; conditions: BMH1, pH 7.2, read-out: Minimum Inhibitory Concentration
# From the text: as §1
# [12] = test system: Salmonella enteritidis G-14; conditions: Salmonella enterica, pH 7.2, read-out: Minimum Inhibitory Concentration
# From the text: as §1
# [13] = test system: Salmonella typhimurium E-9; conditions: Salmonella enterica, pH 7.2, read-out: Minimum Inhibitory Concentration
# From the text: as §1
# [14] = test system: Staphylococcus aureus 209 P; conditions: pH 7.2, read-out: Minimum Inhibitory Concentration
# From the text: as §1
# Proteus rettgeri KY 4288 = conditions: Providencia rettgeri, KY4288, pH 7.2, read-out: Minimum Inhibitory Concentration
# From the text: as §1
# [15] = test system: Streptococcus faecalis ATCC 10541; conditions: Enterococcus faecalis, ATCC10541, pH 7.2, read-out: Minimum Inhibitory Concentration
# From the text: as §1
# [16] = test system: Pseudomonas aeruginosa No. 12; conditions: pH 7.2, read-out: Minimum Inhibitory Concentration
# From the text: as §1
# [17] = test system: Shigella sonnei ATCC 9290; conditions: ATCC9290, pH 7.2, read-out: Minimum Inhibitory Concentration
# From the text: as §1
# [18] = test system: Pseudomonas aeruginosa E-2; conditions: E2, pH 7.2, read-out: Minimum Inhibitory Concentration
# From the text: as §1
# Escherichia coli T-5 = conditions: T5, agar dilution, pH 7.2, read-out: Minimum Inhibitory Concentration
# From the text: as §1
# Escherichia coli Juhl = conditions: agar dilution, pH 7.2, read-out: Minimum Inhibitory Concentration
# From the text: as §1
# Sarcina lutea ATCC 9341 = conditions: Micrococcus luteus, ATCC9341, pH 7.2, read-out: Minimum Inhibitory Concentration
# From the text: as §1
# Proteus vulgaris 6897 = conditions: pH 7.2, read-out: Minimum Inhibitory Concentration
# From the text: as §1
# [19] = test system: Pseudomonas aeruginosa NC-5; conditions: NC5, pH 7.2, read-out: Minimum Inhibitory Concentration
# From the text: as §1
# [20] = test system: Staphylococcus aureus Smith; conditions: pH 7.2, read-out: Minimum Inhibitory Concentration
# From the text: as §1
# [21] = test system: Klebsiella pneumoniae Y-58; conditions: Y58, pH 7.2, strain produces gentamicin adenyltransferase, read-out: Minimum Inhibitory Concentration
# From the text: as §1
# (§5) ^4 produces gentamicin adenyltransferase
# [22] = test system: Escherichia coli KY Z-338; conditions: KYZ338, pH 7.2, strain produces gentamicin adenyltransferase, read-out: Minimum Inhibitory Concentration
# From the text: as §1, §5
# [23] = test system: Klebsiella pneumoniae Y-60; conditions: Y60, pH 7.2, strain produces gentamicin adenyltransferase, read-out: Minimum Inhibitory Concentration
# From the text: as §1, §5
# [24] = test system: Pseudomonas aeruginosa KY 8563; conditions: KY8563, pH 7.2, read-out: Minimum Inhibitory Concentration
# From the text: as §1
# ^7 produces gentamicin acetyltransferase Type III
structure (smiles),measurement,setting,value
"CNCC1CCC(N)C(OC2C(N)CC(NC(=O)C(O)CCN)C(OC3OCC(C)(O)C(N)C3O)C2O)O1 (single isomer, unassigned) [II-2, 3""-N-demethyl-1-N-[L-(-)-α-hydroxy-γ-aminobutyryl] XK-62-2]",MIC,[1],1.56 µg/mL
same,MIC,[2],6.25 µg/mL
same,MIC,[3],6.25 µg/mL
same,MIC,[4],1.56 µg/mL
same,MIC,[5],3.12 µg/mL
same,MIC,[6],3.12 µg/mL
same,MIC,[7],0.2 µg/mL
same,MIC,[8],3.12 µg/mL
same,MIC,Escherichia coli KY 8321,0.78 µg/mL
same,MIC,[9],0.78 µg/mL
same,MIC,Serratia sp T-55,1.56 µg/mL
same,MIC,Proteus morganii KY 4298,1.56 µg/mL
same,MIC,[10],0.2 µg/mL
same,MIC,[11],1.56 µg/mL
same,MIC,[12],3.12 µg/mL
same,MIC,[13],0.78 µg/mL
same,MIC,[14],0.4 µg/mL
same,MIC,Proteus rettgeri KY 4288,0.78 µg/mL
same,MIC,[15],25 µg/mL
same,MIC,[16],0.78 µg/mL
same,MIC,[17],3.12 µg/mL
same,MIC,[18],3.12 µg/mL
same,MIC,Escherichia coli T-5,0.4 µg/mL
same,MIC,Escherichia coli Juhl,1.56 µg/mL
same,MIC,Sarcina lutea ATCC 9341,1.56 µg/mL
same,MIC,Proteus vulgaris 6897,6.25 µg/mL
same,MIC,[19],3.12 µg/mL
same,MIC,[20],0.4 µg/mL
same,MIC,[21],0.4 µg/mL
same,MIC,[22],0.4 µg/mL
same,MIC,[23],0.78 µg/mL
same,MIC,[24],3.12 µg/mL
